# Target: T1, mutant G12C K-RAS (Homo sapiens, UniProt P01116, G12C)
# T1 construct: made in house; host or cells: E. coli BL21
# Test: covalent adduct formation (CAF) with mutant G12C K-RAS
# Type: binding
# Design: covalent adduct formation (CAF): unit not given here
# Details: Table 1; 10 micromolar, after 60 minutes
# Protocol: Embodiments disclosed herein are further illustrated by the following examples in Tables 1-4 and the Examples hereinbelow. The Tables indicate the compound number, structure, the observed mass spectral molecular weight peak, and covalent adduct formation (CAF) with a mutant G12C K-RAS after 60 minutes at a concentration of 10 micromolar.
row,Compound,% CAF(60 min) [%]
1,"C=CC(=O)N1CCN(c2nc(=O)n3c4c(c(-c5c(C)ccc6[nH]ncc56)c(Cl)cc24)OCC3)CC1 [Example 3, 7-(4-acryloylpiperazin-1-yl)-9-chloro-10-(5-methyl-1H-indazol-4-yl)-2H-[1,4]oxazino[2,3,4-ij]quinazolin-5(3H)-one]",67.4

# Same assay, conditions: Table 4; 10 micromolar, after 60 minutes
row,Compound,% CAF(60 min) [%]
1,"C=CC(=O)N1C[C@H](C)N(c2c(C#N)c(=O)n3c4c(c(-c5ccc(F)cc5F)ccc24)OC[C@@H]3CN(C)C)C[C@H]1C [Example 51, (S)-7-((2S,5R)-4-acryloyl-2,5-dimethylpiperazin-1-yl)-10-(2,4-difluorophenyl)-3-((dimethylamino)methyl)-5-oxo-3,5-dihydro-2H-[1,4]oxazino[2,3,4-ij]quinoline-6-carbonitrile]",0

# Same assay, conditions: Table 6; 10 uM, 1 h
row,Compound,"% CAF @ 10 uM, 1 h [%]"
1,"C=CC(=O)N1CCN(c2nc(=O)n3c4c(c(-c5c(O)cccc5F)c(Cl)cc24)OC[C@@H]3CN2CCOCC2)[C@@H](C)C1 [Example 195, (3S,10R)-7-((S)-4-acryloyl-2-methylpiperazin-1-yl)-9-chloro-10-(2-fluoro-6-hydroxyphenyl)-3-(morpholinomethyl)-2,3-dihydro-5H-[1,4]oxazino[2,3,4-ij]quinazolin-5-one]",0
2,"C=CC(=O)N1CCN(c2nc(=O)n3c4c(c(-c5c(O)cccc5F)c(Cl)cc24)OC[C@H]3CN2CCC(F)(F)C2)[C@@H](C)C1 (atropisomer, axis not shown) [Example 227, (3R,10R)-7-((S)-4-acryloyl-2-methyl-piperazin-1-yl)-9-chloro-3-((3,3-difluoropyrrolidin-1-yl)methyl)-10-(2-fluoro-6-hydroxyphenyl)-2,3-dihydro-5H-[1,4]-oxazino-[2,3,4-ij]-quinazolin-5-one]",0
3,"C=CC(=O)N1C[C@H](C)N(c2nc(=O)n3c4c(c(-c5c(O)cccc5F)c(Cl)cc24)OC[C@@H]3CN2CCN(C)CC2)C[C@H]1C (atropisomer, axis not shown) [Example 305, (3S,10R)-7-((2S,5R)-4-acryloyl-2,5-dimethylpiperazin-1-yl)-9-chloro-10-(2-fluoro-6-hydroxyphen-yl)-3-((4-methylpiper-azin-1-yl)methyl)-2,3-dihydro-5H-[1,4]-oxazino[2,3,4-ij]-quinazolin-5-one]",0
4,"C=CC(=O)N1C[C@H](C)N(c2nc(=O)n3c4c(c(-c5c(C)ccc6[nH]nnc56)ccc24)OCC3)C[C@H]1C [Example 219, 7-((2S,5R)-4-acryloyl-2,5-dimethylpiperazin-1-yl)-10-(5-methyl-1H-benzo[d][1,2,3]triazol-4-yl)-2,3-dihydro-5H-[1,4]oxazino[2,3,4-ij]quinazolin-5-one]",0
5,"C=CC(=O)N1C[C@H](C)N(c2nc(=O)n3c4c(c(-c5c(C)ccc6[nH]ncc56)c(Cl)cc24)OC[C@@H]3CCCN2C3CCC2COC3)C[C@H]1C [Example 281, (3S,10S)-3-(3-(3-oxa-8-azabicyclo[3.2.1]octan-8-yl)propyl)-7-((2S,5R)-4-acryloyl-2,5-dimethylpiperazin-1-yl)-9-chloro-10-(5-methyl-1H-indazol-4-yl)-2,3-dihydro-5H-[1,4]oxazino [2,3,4-ij] quinazolin-5-one]",0
6,"C=CC(=O)N1C[C@H](C)N(c2nc(=O)n3c4c(c(-c5c(O)cccc5F)c(Cl)cc24)OC[C@@H]3CN2CCOCC2)C[C@H]1C (atropisomer, axis not shown) [Example 208, (3R,10R)-7-((2S,5R)-4-acryloyl-2,5-dimethyl-piperazin-1-yl)-9-chloro-10-(2-fluoro-6-hydroxyphenyl)-3-(morpholinomethyl)-2,3-dihydro-5H-[1,4]-oxazino[2,3,4-ij]-quinazolin-5-one]",0
7,"C=CC(=O)N1C[C@H](C)N(c2nc(=O)n3c4c(c(-c5c(C)ccc6[nH]ncc56)c(Cl)cc24)OC[C@H]3Cn2cccn2)C[C@H]1C (atropisomer, axis not shown) [Example 319, (3R,10S)-3-((1H-pyrazol-1-yl)methyl)-7-((2S,5R)-4-acryloyl-2,5-dimethylpiperazin-1-yl)-9-chloro-10-(5-methyl-1H-indazol-4-yl)-2,3-dihydro-5H-[1,4]oxazino[2,3,4-ij]-quinazolin-5-one]",0
8,"C=CC(=O)N1C[C@H](C)N(c2nc(=O)n3c4c(c(-c5c(F)cccc5C(F)F)ccc24)OCC3)C[C@H]1C [Example 200, 7-((2S,5R)-4-acryloyl-2,5-dimethylpiperazin-1-yl)-10-(2-(difluoromethyl)-6-fluorophenyl)-2,3-dihydro-5H-[1,4]oxazino[2,3,4-ij]quinazolin-5-one]",0
9,"C=CC(=O)N1C[C@H](C)N(c2nc(=O)n3c4c(c(-c5c(F)ccc6[nH]nnc56)ccc24)OCC3)C[C@H]1C [Example 223, 7-((2S,5R)-4-acryloyl-2,5-dimethylpiperazin-1-yl)-10-(5-fluoro-1H-benzo[d][1,2,3]triazol-4-yl)-2,3-dihydro-5H-[1,4]oxazino[2,3,4-ij]quinazolin-5-one]",0

# Same assay, conditions: Table 7; 10 micromolar, after 60 minutes
row,Compound,covalent adduct formation (CAF)
1,"C=CC(=O)N1CCN(c2nc(=O)n3c4c(c(-c5c(F)cc(F)cc5F)c(Cl)cc24)SC[C@@H]3CCCN2C[C@@H]3C[C@H]2CO3)[C@@H](C)C1 [Example 340, (S)-3-(3-((1S,4S)-2-oxa-5-azabicyclo-[2.2.1]heptan-5-yl)-propyl)-7-((S)-4-acryloyl-2-methyl-piperazin-1-yl)-9-chloro-10-(2,4,6-trifluorophenyl)-2H-[1,4]thiazino[2,3,4-ij]-quinazolin-5(3H)-one]",96.9
2,"C=CC(=O)N1CCN(c2nc(=O)n3c4c(c(-c5c(F)cc(F)cc5F)c(Cl)cc24)SC[C@H]3COC)[C@@H](C)C1 [Example 137, (R)-7-((S)-4-acryloyl-2-methylpiperazin-1-yl)-9-chloro-3-(methoxymethyl)-10-(2,4,6-trifluorophenyl)-2,3-dihydro-5H-[1,4]thiazino[2,3,4-ij]quinazolin-5-one]",86.8
3,"C=CC(=O)N1CCN(c2nc(=O)n3c4c(c(-c5ccc(F)cc5F)c(Cl)cc24)SC[C@H]3C)[C@@H](C)C1 [Example 99, (3R)-7-((S)-4-acryloyl-2-methylpiperazin-1-yl)-9-chloro-10-(2,4-difluorophenyl)-3-methyl-2H-[1,4]thiazino[2,3,4-ij]quinazolin-5(3H)-one]",87.2
4,"C=CC(=O)N1CCN(c2nc(=O)n3c4c(c(-c5ccc(F)cc5F)c(Cl)cc24)SC[C@H]3CCCN2C[C@@H]3C[C@H]2CO3)[C@@H](C)C1 [Example 341, (3R)-3-(3-((1S,4S)-2-oxa-5-azabicyclo[2.2.1]heptan-5-yl)propyl)-7-((S)-4-acryloyl-2-methylpiperazin-1-yl)-9-chloro-10-(2,4-difluorophenyl)-2H-[1,4]thiazino[2,3,4-ij]quinazolin-5 (3H)-one]",96.5
5,"C=CC(=O)N1CCN(c2nc(=O)n3c4c(c(-c5c(F)cc(F)cc5F)c(Cl)cc24)SC[C@@H]3CC2CCN(C)CC2)[C@@H](C)C1 [Example 343, (S)-7-((S)-4-acryloyl-2-methylpiperazin-1-yl)-9-chloro-3-((1-methylpiperidin-4-yl)-methyl)-10-(2,4,6-trifluorophenyl)-2H-[1,4]thiazino[2,3,4-ij]-quinazolin-5(3H)-one]",96.7
